Reference: BindingDB's records for doi:10.1111/cbdd.12375 (Ferdowsi University of Mashhad, 2015)

Molecular target: T1, Seed linoleate 13S-lipoxygenase-1 (Glycine max, UniProt P08170)
T1 sequence (P08170 whole entry): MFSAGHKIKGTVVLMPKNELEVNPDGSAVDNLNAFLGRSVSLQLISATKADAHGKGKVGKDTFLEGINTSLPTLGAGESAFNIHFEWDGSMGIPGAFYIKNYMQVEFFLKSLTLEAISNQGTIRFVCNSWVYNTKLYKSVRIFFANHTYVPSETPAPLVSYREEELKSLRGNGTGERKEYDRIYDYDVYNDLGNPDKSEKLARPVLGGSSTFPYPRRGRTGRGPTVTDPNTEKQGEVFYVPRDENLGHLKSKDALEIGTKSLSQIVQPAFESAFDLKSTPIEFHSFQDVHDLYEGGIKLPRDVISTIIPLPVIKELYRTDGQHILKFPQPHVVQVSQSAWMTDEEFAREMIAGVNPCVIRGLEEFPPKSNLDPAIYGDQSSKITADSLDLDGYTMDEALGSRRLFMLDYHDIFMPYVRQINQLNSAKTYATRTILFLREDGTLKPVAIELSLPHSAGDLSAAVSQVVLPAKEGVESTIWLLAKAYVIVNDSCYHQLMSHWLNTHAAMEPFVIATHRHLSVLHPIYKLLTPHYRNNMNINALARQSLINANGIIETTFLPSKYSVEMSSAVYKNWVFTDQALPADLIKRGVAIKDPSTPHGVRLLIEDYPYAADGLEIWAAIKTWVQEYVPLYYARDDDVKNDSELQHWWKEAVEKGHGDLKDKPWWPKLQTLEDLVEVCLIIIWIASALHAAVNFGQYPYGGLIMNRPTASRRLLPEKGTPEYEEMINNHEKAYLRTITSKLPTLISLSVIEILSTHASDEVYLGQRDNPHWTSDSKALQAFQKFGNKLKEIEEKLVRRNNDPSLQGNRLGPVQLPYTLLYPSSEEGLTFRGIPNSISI
Test: 15LO Inhibition Assay
Conditions: pH 7; 25 °C
Protocol: Linoleic acid and two assay solutions (A and B) were prepared in advance. Solution A was 50 mM 3-(dimethylamino)benzoic acid (DMAB) in a 100 mM phosphate buffer (pH 7.0). Solution B was a mixture of 10 mM 3-methyl-2-benzothiazolinone (MBTH) 3 mL, hemoglobin (5 mg/mL, 3 mL) in 50 mM phosphate buffer at pH 5.0 (25 mL). A linoleic acid solution was prepared by mixing 5 mg of linoleic acid with 50 mg Tween-20 in 3 mL water and then diluting with KOH 100 mM to a final volume of 5 mL. In the standard assay, the sample in ethanol ([…]), soybean 15-lipo-oxygenase (SLO) (4000 units/mL in 50 mM phosphate buffer pH 7.0; […]) and phosphate buffer pH 7.0 (50 mM; […]) were mixed in a test-tube, and preincubation was carried out for 5 min at room temperature. A control test was done with the same volume of ethanol. After the preincubation, linoleic acid solution […] was added to start the peroxidation reaction, and 7 min later,solution A […] and then solution B […] was added to

SMILES	IC50
CCN1CCN(c2nc(C)c(Br)c(Sc3nnc(Sc4nc(N5CCN(CC)CC5)nc(C)c4Br)n3N)n2)CC1 [3,5-bis((5-bromo-6-methyl-2-(4-ethylpiperazin-1-yl)pyrimidin-4-yl)thio)-4H-1,2,4-triazol-4-amine (4f)]	12 µM
Cc1nc(N2CCN(C)CC2)nc(Sc2nnc(Sc3nc(N4CCN(C)CC4)nc(C)c3Br)n2N)c1Br [3,5-bis((5-bromo-6-methyl-2-(4-methylpiperazin-1-yl)pyrimidin-4-yl)thio)-4H-1,2,4-triazol-4-amine (4d)]	9 µM
Cc1nc(N2CCC(C)CC2)nc(Sc2nnc(Sc3nc(N4CCC(C)CC4)nc(C)c3Br)n2N)c1Br [3,5-bis((5-bromo-6-methyl-2-(4-methylpiperidin-1-yl)pyrimidin-4-yl)thio)-4H-1,2,4-triazol-4-amine (4c)]	> 500 µM
Cc1nc(N2CCN(c3ccccc3)CC2)nc(Sc2nnc(Sc3nc(N4CCN(c5ccccc5)CC4)nc(C)c3Br)n2N)c1Br [3,5-bis((5-bromo-6-methyl-2-(4-phenylpiperazin-1-yl)pyrimidin-4-yl)thio)-4H-1,2,4-triazol-4-amine (4e)]	> 500 µM
Cc1nc(N2CCCCC2)nc(Sc2nnc(Sc3nc(N4CCCCC4)nc(C)c3Br)n2N)c1Br [3,5-bis((5-bromo-6-methyl-2-(piperidin-1-yl)pyrimidin-4-yl)thio)-4H-1,2,4-triazol-4-amine (4b)]	> 500 µM
Cc1nc(N2CCCC2)nc(Sc2nnc(Sc3nc(N4CCCC4)nc(C)c3Br)n2N)c1Br [3,5-bis((5-bromo-6-methyl-2-(pyrrolidin-1-yl)pyrimidin-4-yl)thio)-4H-1,2,4-triazol-4-amine (4g)]	> 500 µM
Cc1nc(N2CCOCC2)nc(Sc2nnc(Sc3nc(N4CCOCC4)nc(C)c3Br)n2N)c1Br [3,5-bis((5-bromo-6-methyl-2-morpholinopyrimidin-4-yl)thio)-4H-1,2,4-triazol-4-amine (4a)]	> 500 µM
